From PMC12254416, “The antimethanogenic efficacy and fate of bromoform and its transformation products in rumen fluid” (Scientific Reports, 2025)
“Also recorded” adds a separate entry of the source.

Tests used:
[1] = Compound tracing incubation in live rumen fluid (biotic plus inhibitor, B+); format: in vitro ADME, Holstein cattle; settings: for Rate constant, biological loss: difference between total loss (B+) and abiotic loss (AC+); for ½ life, biological loss: from difference of B+ and AC+ rates; for ½ life, loss (total, biotic incubation) / Rate constant, loss (total, biotic incubation): live rumen fluid B+, 40 °C; for Rate constant, loss (total, biotic incubation): compound added alone
Source text: (§1) Animals used in this study were cared for according to the guidelines of William H. Miner Agricultural Research Institute (Chazy, NY) Animal Care and Use Committee. Rumen fluid was collected by cannulation from four healthy, lactating Holstein cattle maintained on the same diet for five weeks with approval from the William H. Miner Agricultural Research Institute (Chazy, NY) Animal Care and Use Committee and in compliance with SOP#106.
(§2) Donor cow profiles and dietary information can be found in supplemental information (Table S1 and Table S2). Rumen samples were strained through four layers of cheesecloth, placed on ice and shipped overnight to Bigelow Laboratory for Ocean Sciences at weekly intervals for three consecutive weeks. Upon arrival, the four samples were combined under anaerobic conditions. Sub-samples of the rumen fluid blend were flash-frozen in liquid nitrogen and stored at −20 °C for later analysis of initial pH, ammonia (NH3), and volatile fatty acids (VFAs). The rumen fluid blend was kept air-tight, on ice at 4 °C until used for experimental incubations within four days[34],[35].
(§3) This study utilized an in vitro technique of directly incubating rumen fluid for short-term experiments (< 6 h). The in vitro experiments were performed in accordance with guidelines reviewed in Yáñez-Ruiz et al.[36]. In order to investigate the response to and transformation of methanogenesis inhibitors, experiments included combinations of the following treatment groups: (i) biotic control (BC): live rumen fluid containing no inhibitors, (ii) biotic plus inhibitor (B+): live rumen fluid containing an inhibitor, (iii) abiotic control plus inhibitor (AC+): rumen fluid sterilized by autoclave (121 °C, 15 psi for 1 h) and containing an inhibitor. Prior to the incubation experiments, 80 ml aliquots of blended rumen fluid were added to 120 ml glass serum bottles and sealed with PTFE septa under anaerobic conditions (80% nitrogen, 15% carbon dioxide, 5% hydrogen). Experiments consisted of a series of 15 to 18 bottles of the same batch of refrigerated rumen fluid incubated in parallel. To revive the microbial activity at the start of each experiment, the incubation bottles, including the killed controls, were brought to 40 °C in a recirculating water bath within 15 min. The bottles thermally equilibrated for another 30 min before the experiment was initiated. The experiment was initiated after headspace sampling (T0) and the designated treatment was added. The incubation proceeded for ~ 4–6 h at 40 °C.
(§4) Two experimental designs were run: i) compound tracing experiments, to investigate the lifetime and transformation of inhibitors; and ii) dose-response experiments, to determine the sensitivity of methanogenesis to inhibitors (Fig. 1). Dose-response experiments included biotic controls (BC), and a series of nine biotic plus inhibitor treatments (B+) across a range of concentrations (0 to 25 µM) containing the specific inhibitor (bromoform (Sigma-Aldrich 99%), dibromomethane (Sigma-Aldrich 99%), bromomethane (Supelco TraceCERT®), or Asparagopsis taxiformis. The A. taxiformis was collected fresh from a marine site in the subtropical Atlantic (27° 59’ 19”, −15° 22’ 12”) and stored frozen at −20 °C. The sample material contained 0.33 ± 0.02 mg bromoform g^−1 dry weight.
(§5) Tracing experiment treatments included biotic controls (BC), biotic plus inhibitors (B+), and abiotic plus inhibitors (AC+) of a single concentration of the target compound, each in triplicate. Target compounds bromoform, dibromomethane, and bromomethane, were injected through the septa as solutions in methanol (VWR 99.9%). The corresponding levels of methanol, which ranged from 30 to 950 µl, were added to the control treatments, depending on the desired inhibitor concentration. The A. taxiformis was cut into fine pieces, homogenized, pre-weighed into PTFE capsules and placed in the incubation bottles prior to incubation. […]

[2] = Compound tracing incubation in autoclaved rumen fluid (abiotic control plus inhibitor, AC+); format: in vitro ADME, Holstein cattle
Source text: as §1, §2, §3, §4, §5

[3] = tested on: CH4 production in rumen fluid; test: CH4 production in in vitro rumen fluid incubations (dose-response and single-dose inhibition); format: cell-based, Holstein cattle; settings: for Concentration range of the dose response: CH4 production vs inhibitor concentration, for bromomethane the extent of the range; for Concentration at which the sigmoidal concentration-inhibition relationship occurred: abstract; for Time after addition to reduced CH4 production: bromoform addition, vs control; for CH4 production relative to the no treatment control: concentrations > 2 µmol l^−1; for maximum value of CH4 production (dose-response fit) / minimum value of CH4 production (dose-response fit): cumulative CH4 over 240 min, 80 ml rumen fluid; for maximum value of CH4 production (dose-response fit) / minimum value of CH4 production (dose-response fit) / EC50 / coefficient b of log-logistic dose-response curve: ± standard error; for EC50: cumulative CH4 over 240 min vs initial concentration, read-out: ec-50, 50 % inhibition of CH4 production; for coefficient b of log-logistic dose-response curve: cumulative CH4 production over 240 min vs initial inhibitor concentration
Source text: as §1, §2, §3, §4, §5

[4] = Loss to headspace volume estimated from Henry's Law solubility constants; format: physicochemical; settings: based on Henry's Law solubility constants, during the incubations
Description: Based on the Henry’s Law solubility constants for bromoform and dibromomethane, loss to the headspace volume during the incubations would have amounted to < 5% of the dissolved pool of either compound and therefore, had minimal influence on estimated loss and turnover rates. In contrast, approximately 40% of any bromomethane produced during the tracing experiments may have been lost to the headspace gas sampling and may have contributed to the lack of evidence of bromomethane production.

[5] = design: method as in earlier work; settings: incubation times up to 72 h; ref 33 Romero et al.; cited from earlier work
[6] = bromoform-amended live rumen fluid (Exp1)
[7] = bromoform-amended autoclaved rumen fluid (Exp1)

Compound	Rate constant, biological loss [1]	½ life, biological loss [1] [min]	½ life, loss (total, biotic incubation) [1]	Rate constant, loss (total, biotic incubation) [1]	½ life, abiotic loss ([2]; autoclaved rumen fluid AC+) [min]	Concentration range of the dose response [3] [µmol/L]	Concentration at which the sigmoidal concentration-inhibition relationship occurred [3] [µM]	CH4 production relative to the no treatment control [3] [%]	maximum value of CH4 production (dose-response fit) [3] [µmol]	minimum value of CH4 production (dose-response fit) [3] [µmol]	EC50 [3] [nM]	coefficient b of log-logistic dose-response curve [3]	Loss to the headspace volume, share of the dissolved pool / of compound produced [4]	further results
BrC(Br)Br [bromoform]	-19.6 ± 1.2 x 10^-3min^-1	35	~ 26 min	-26.4 ± 1.3 x 10^-3min^-1	102	1 to 2	1 to 2	< 20	681 ± 14	98 ± 16	1370 ± 30	5.98 ± 0.76	< 5%	Loss rate in live rumen fluid relative to autoclaved control ([1]; B+ vs AC+): more than 3 fold; ½ life, loss (total, biotic incubation) ([1]; listed as Bromoform): 26 min; Rate constant, abiotic loss ([2]; autoclaved rumen fluid AC+, 40 °C): -6.8 ± 0.3 x 10^-3min^-1; Inhibition threshold for CH4 production [3]: ~ 1 µmol l^−1; CH4 inhibition vs biotic control ([3]; bromoform 3 µmol l^−1, after 260 min (Exp 4)): 78%; Time after addition to reduced CH4 production [3]: < 60 min; Time after addition to reduced CH4 production ([3]; listed as CHBr3): ≤ 60 min; Inhibition of CH4 production ([3]; total bromoform addition of 3 µmol l^−1, ~300 min (Exp 3)): > 75%
CBr [bromomethane]	–	–	–	–	–	–	–	–	616 ± 6	182 ± 7	5340 ± 140	3.09 ± 0.24	approximately 40%	Production of bromomethane in incubations ([1]; tracing incubations, limit of detection 8 nmol l^−1): no bromomethane was detected; also recorded: not detected; also recorded: no detectable bromomethane production; Concentration required to achieve a maximal inhibitory effect ([3]; CH4 production dose response (Exp7)): > 20 µmol/L; EC50 relative to bromoform and dibromomethane ([3]; higher): ~5 fold
BrCBr [dibromomethane]	-0.826 ± 0.113 x 10^-3min^-1	839	775 min	-0.894 ± 0.091 x 10^-3min^-1	10200	1 to 2	1 to 2	< 20	763 ± 16	146 ± 8	1360 ± 30	7.46 ± 0.92	< 5%	Peak dibromomethane as % of the highest observed bromoform, biotic ([1]; B + A.tax (Exp 4)): 22.0%; Peak level of dibromomethane after A. taxiformis addition, biotic ([1]; B + A.tax (Exp 4)): 0.076 ± 0.006 µmol/L; Dibromomethane production rate [1, 6]: 0.0353 ± 0.0024 µmol/L/min; Yield of dibromomethane, % of the initial bromoform added [1, 6]: 22.1%; Biotic loss slower than the loss of bromoform ([1]; dibromomethane vs bromoform, biotic): ~30 fold; Dibromomethane as % of the maximum bromoform concentrations, abiotic ([2]; AC + A.tax (Exp 4)): 1.3%; Dibromomethane at the end of the incubation after A. taxiformis addition, abiotic ([2]; AC + A.tax (Exp 4)): 0.030 ± 0.001 µmol/L; Dibromomethane abiotic production rate [2, 7]: 0.0014 ± 0.0001 µmol/L/min; Yield of dibromomethane, % of the initial bromoform added, abiotic [2, 7]: 3.4%; Yield of dibromomethane, % of the initial bromoform added, abiotic ([2]; bromoform-amended autoclaved rumen fluid (Exp1), listed as Dibromomethane): 3.4%; Dibromomethane produced as proportion of the degraded bromoform [5]: 20 to 40%
